# Test results: patent US11214561B2, “Histone methyltransferase EZH2 inhibitor, preparation method and pharmaceutical use thereof” (ANCUREALL PHARMACEUTICAL (SHANGHAI) CO., LTD., priority 2017, dated 2022)
# Tests used:
# [1] = system: EZH2 A677G mutant positive-expressing tumor cell line Pfeiffer; test: In vivo growth inhibition, Pfeiffer subcutaneous transplantation model; conditions: for Tumor volume: 200 mg/kg orally once a day
# Excerpt: Test Example 2 Determination of the in vivo growth inhibition activity of the present compounds on EZH2 A677G mutant positive-expressing tumor cell line Pfeiffer NOD/SCID mice were subcutaneously inoculated with human diffuse large cell B lymphoma lymphocyte Pfeiffer (ATCC) expressing EZH2 A677G mutant protein to establish a subcutaneous transplantation model of human B cell lymphoma.
# Experimental animals: NOD/SCID mice, female, 9 weeks (weeks of age when tumor cell inoculation), average weight 20.3 g, 18 mice, were purchased from Shanghai Lingchang biotechnology co., Ltd. with animal certificate No.: 2002007656. The breeding environment was SPF grade.
# Test samples: the present example compounds 34 (purity: 99.03%) and 35 (purity: 97.6%), solid powder, preserved at −20° C.
# Pfeiffer cells were cultured in RPM1640 medium containing 10% of fetal bovine serum. Log-phase Pfeiffer cells were collected and resuspended with PBS to 1×10^8 cells per ml for subcutaneous inoculation in NOD/SCID mice.
# All the mice were treated with Co60 irradiation at a dose of 200 rad the day before the inoculation, and 1×10^7 Pfeiffer cells were then subcutaneously inoculated at the right back, and the cells were resuspended in 1:1 PBS and Matrigel (0.1 ml/mouse). When the average tumor volume was 134 mm^3, the mice were randomly grouped according to tumor size. Tumor volume was calculated as: long diameter×short diameter^2/2. The day of tumor cells inoculation was defined as day 0. The test was divided into solvent control group and drug treatment group (compound 34 group and compound 35 group). 6 mice for each group were given orally once a day for a total of 4 weeks. Efficacy was assessed based on relative tumor growth inhibition value (TGI), and safety was assessed based on animal weight change and mortality.
# Preparation of test samples: compounds 34 or 35 was weighed and mixed with ultrapure water, and methanesulfonic acid was added for clarification. The PH value was about 1.64 at this moment. 4M NaOH was then added to adjust the PH to 3.5 and bring to volume by ultrapure water, the final concentrations was 20 mg/ml. Determination standard: TGI (%): […].
# T/C % refers to the relative value-added rate of tumor, that is, the percentage value of relative tumor volume or tumor weight for the treatment group and the control group at a certain point. T and C were the relative tumor volumes (RTV) of the treatment group and the control group at a specific point, respectively. The calculation formula is as follows: T/C%=TRTV/CRTV*100% TRTV: mean RTV of the treatment group; CRTV: mean RTV of solvent control group; RTV=Vt/V0, V0 was the tumor volume of the animal when grouping, Vt was the tumor volume of the animal after treatment. Statistical analysis: all test results were defined as mean tumor volume±SEM (mean standard error). Tumor volume data of 27 days after the start of treatment were selected for statistical analysis among different groups, and independent sample T test was used to compare whether there were significant differences in tumor volume between the treatment group and the control group. All data were analyzed using SPSS 18.0. P<0.05 was considered as significant difference.
# SU-DHL-8 (EZH2 WT) = test: In vitro 50% growth inhibition (GI50), MTT/CCK8, SU-DHL-8 cells; format: cell-based; conditions: Homo sapiens, SU-DHL-8, 144 h; Drug treatment for 6 days
# Excerpt: (§1) In the present invention, a representative tumor cell line was selected to determine the cell growth inhibition activity of the present compound. Cell culture conditions and methods were in accordance with the requirements for each cell lines. The cells were subcultured in vitro for less than 3 generations each time, and as required, monoclone purification and identification of cell lines could be carried out.
# (§2) The cell culture media used were RPMI1640 (Gibco) comprising 5-20% of fetal bovine serum (Gibco), 1% of double-antibiotic and 2 mM of glutamine.
# (§3) Suspension culture cells were collected by centrifugation (1700 rpm, 3 minutes), and the supernatant was discarded and the cells were counted. According to each cell growth cycle, different concentrations of cells were prepared (1-10×10^4 cells per ml) and added to 96-well plates (Corning) with 100 μl per well, and then incubated overnight at 37° C., 5% CO2. The next day, the test compound was added to the cultured cells (2 wells in parallel). The final concentration of the solvent was less than 1/1,000. The cells were further cultured for 6 to 12 days and assayed by MTT.
# (§4) The compound was stored at a concentration of 10 mM at −20° C. and diluted to two-fold or 10-fold series prior to use.
# (§5) For the suspension culture cells, CCK8 was directly added to 10% of the final concentration. The cells were continually incubated for […].
# (§6) The experiments were repeated 3 times and a statistical analysis of data was conducted.
# [2] = In vivo pharmacokinetics in rats; conditions: SD rats
# Protocol: Test Example 4 Study of In Vivo Pharmacokinetics of the Present Compounds in Rats
# Male SD rats (Shanghai Sippr-BK Experimental Animal Co., Ltd) were purchased and kept in Shanghai University of Traditional Chinese Medicine animal center (approved by the ethics committee of Shanghai University of Traditional Chinese Medicine) for 7 days. The rats were randomly divided into 4 groups (˜220 g), 3 rats for each group. Animals were administered intravenously (iv) and orally (po). The rats in po group were starved for 12 hours before administration. After administration, blood was collected from the orbital venous plexus at 0 min (before administration), 2 min, 5 min, 15 min, 30 min, 1 h, 2 h, 4 h, 6 h, 8 h and 24 h. About 200 ul of blood was collected at each time point, and were collected in 1.5 ml centrifuge tube containing heparin sodium. The upper blood […] were collected by centrifugation (8000 rpm, 3 min) and stored at −80° C.
# Preparation of test samples: 125.0 mg compound 34 or compound 35 was weighed and added with 4 ml ultrapure water, and 25 ul methanesulfonic acid was added with stirring. The mixture was further stirred until clear and transparent (pH ˜3.32). 1 ml of the above solution was added with 4 ml of ultra-pure water to obtain 5 mg/ml of compound 34 or compound 35 solution (pH=3.5).
# Dose and mode of administration: single oral dose (100 mpk) and single intravenous dose (5 mpk).
# Administration volume: 4 ml/kg (orally), 1 ml/kg (intravenously).
# The plasma concentration of the compound was determined by LC-MS/MS (AB scexqtrap@4500 LCMS/MS system). Pharmacokinetic parameters were calculated by WinNonlin (a professional software). The experiment was repeated once.
# Pfeiffer (EZH2 A677G) = test: In vitro 50% growth inhibition (GI50), MTT/CCK8, Pfeiffer cells; format: cell-based, Human; conditions: Homo sapiens, Pfeiffer, 240 h; Drug treatment for 10 days
# Excerpt: as §1, §2, §3, §4, §5, §6
# Karpas-422 (EZH2 Y641N) = test: In vitro 50% growth inhibition (GI50), MTT/CCK8, Karpas-422 cells; format: cell-based; conditions: Homo sapiens, KARPAS-422, 144 h; Drug treatment for 6 days
# Excerpt: as §1, §2, §3, §4, §5, §6
# [3] = 200 mg/kg, 27th day after the start of treatment
# [4] = 200 mg/kg, 27 days after the start of treatment
structure (smiles),measurement,setting,value
"C=CC(=O)N1CCC(N(CC)c2cc(-c3ccc(CN4CCOCC4)cc3)cc(C(=O)NCc3c(C)cc(C)[nH]c3=O)c2C)CC1 [Example 35, N-(4,6-dimethyl-2-oxo-1,2-dihydro-pyridin-3-ylmethyl)-5-[(1-acryloyl-piperidin-4-yl)-ethyl-amino]-4-methyl-4′-(morpholin-4-ylmethyl)-[1,1′-biphenyl]-3-carboxamide]",body weight during the treatment,[1]; 200 mg/kg dose,maintained a stable body weight
same,tolerability,[1]; 200 mg/kg dose,well tolerated
same,Tumor volume,[1]; Day 0 after the start of treatment,134 ± 9 mm^3
same,Tumor volume,[1]; Day 3 after the start of treatment,324 ± 38 mm^3
same,Tumor volume,[1]; Day 7 after the start of treatment,681 ± 72 mm^3
same,Tumor volume,[1]; Day 10 after the start of treatment,635 ± 88 mm^3
same,Tumor volume,[1]; Day 14 after the start of treatment,710 ± 87 mm^3
same,Tumor volume,[1]; Day 17 after the start of treatment,751 ± 135 mm^3
same,Tumor volume,[1]; Day 21 after the start of treatment,801 ± 152 mm^3
same,Tumor volume,[1]; Day 24 after the start of treatment,1029 ± 193 mm^3
same,Tumor volume,"[1]; Day 27 after the start of treatment, listed as Compound 35",1116 ± 196 mm^3
same,Tumor volume,"[1]; Day 27 after the start of treatment, listed as compound 35",1116 mm^3
same,"RTV (x ± S), relative tumor volume",[1]; [3],8.2 ± 1.1
same,"T/C (%), relative tumor volume",[1]; [3],57.7%
same,"TGI (%), relative tumor volume",[1]; [3],42.3%
same,"T/C (%), tumor weight",[1]; [4],51.3%
same,"TGI, tumor weight",[1]; [4],48.7%
same,Tumor weight (mg) (x ± S),[1]; [4],580 ± 99 mg
same,"anti-tumor effect, in words","[1]; 200 mg/kg, versus solvent control group",significant anti-tumor effects
same,GI50,SU-DHL-8 (EZH2 WT),> 1000 nM
same,"bioavailability, in words",[2],good bioavailability
same,bioavailability,"[2]; male, rat, plasma, IV 5 mg/kg, PO 100 mg/kg, methanesulfonic acid aqueous solution",39.1%
same,GI50,Pfeiffer (EZH2 A677G),1 to 10 nM
same,GI50,Karpas-422 (EZH2 Y641N),10 to 100 nM
